Values joined by “and” are separate entries in the source; they are usually repeats but may differ in a detail not shown here. Equal values may be shown once.
Columns and labels:
KalbSec14 [1] = target: T1, KalbSec14 (Rattus norvegicus, UniProt P97924, N62Y/T46S); test: Liposome flotation binding assay (Accudenz gradient, Western blot); settings: for binding of Kal^bSec14 to liposomes containing the lipid: Golgi-mixture liposomes with 8% test lipid, result in words; for Fraction 1 protein content (top fraction, liposome-bound), densitometry, Ave. / Fraction 2 protein content, densitometry, Ave. / Fraction 3 protein content, densitometry, Ave. / Fraction 4 protein content (bottom fraction, unbound), densitometry, Ave.: mean of independent experiments; for Fraction 1 protein content (top fraction, liposome-bound), densitometry: normalized to total protein recovered from each gradient
T1 construct: His6 (TEV-cleavable) (N, cleaved yes); made in house; host or cells: E. coli BL21(DE3)
Procedure: Unilamellar liposomes formed by mixing synthetic dioleoyl phospholipids and cholesterol in proportions mimicking the membranes of the trans-Golgi network (Golgi-mixture) were incubated with Kal^bSec14. An Accudenz gradient was used to separate liposome-bound proteins, which were recovered from the top of the gradient (fraction 1), from unbound proteins, which remained at the bottom (fraction 4). Protein levels in each fraction were analyzed by Western blotting with an antibody to the Sec14 domain of Kalirin.
(§1) The synthetic and natural lipids used in flotation assays were purchased from Avanti Polar Lipids, Inc. (Supplementary Table 2). All powdered lipids were dissolved in chloroform per the manufacturer’s instructions. Liposomes were prepared as previously described. […] Individual test lipids were dried together with the control lipid mix under a nitrogen stream and lyophilized overnight. Each dried lipid film was reconstituted to a final concentration of 1 mM in HN buffer containing 20 mM HEPES (pH 7.4) and 150 mM NaCl. Each final lipid mixtures consisted of 52% DOPC, 20% DOPE, 5% DOPS, 15% cholesterol and 8% tested lipid; inclusion of a trace amount of fluorescent lipid (Liss Rhod PE) allowed for localization of liposomes following gradient fractionation (see below). Each lipid mixture underwent five freeze-thaw cycles separated by vigorous vortexing each time it was thawed. Using a mini-extruder, unilamellar liposomes were prepared by passing each lipid mixture 21 times through a polycarbonate membrane of 100-nm pore size. Hydrated lipid mixtures were stored at −20 °C for up to 1 month; liposomes were freshly prepared for each experiment.
(§2) Flotation assays were conducted following the protocol previously described. Accudenz (Accurate Chemical and Scientific Corp., Westbury, NY) solutions (80 and 20% weight/vol) were prepared in HN buffer. To remove any particulate material, the protein to be tested was first centrifuged at 436,000 g at 4 °C for 15 min in a TL-100 ultracentrifuge using a Beckman TLA100.2 fixed angle rotor. Freshly prepared unilamellar liposomes (50 μl) were combined with 0.2 μg of the centrifuged protein and incubated at room temperature for 30 min. The entire liposome/protein mixture was then combined with 50 μl of 80% Accudenz at the bottom of an ultracentrifuge tube and carefully mixed to completion by pipetting. The resulting mixture was overlayered with […] of 20% Accudenz and then with 50 μl of HN buffer. Samples were centrifuged at 259,000 g at 4 °C for 30 min in the same ultracentrifuge using a Beckman TLS55 swinging bucket rotor. Gradients were then divided into four 100-μl fractions, which were carefully collected from the bottom of the tube using gel loading micropipette tips. Each fraction was analyzed for liposome and protein content using spectrophotometry (546-nm excitation/571-nm emission) and Western blot, respectively. Only those assays with at least 90% of the Liss Rhod PE marker recovered in the top fraction (fraction 1) were used for Western bloting analysis.
(§3) For Western bloting analysis, equal aliquots of each gradient fraction were denatured in 1× Laemmli sample buffer, fractionated on 15% acrylamide gels, and transferred to PVDF membranes. The protein content was detected using a custom-made rabbit antibody to the Sec14 domain of Kalirin (CT302[69], 1:3000) and an HRP-tagged goat anti-rabbit IgG (H + L) secondary antibody (catalog # 31460, 1:6000; ThermoFisher Scientific). SuperSignal West chemiluminescent substrate (Thermo Scientific) and a Syngene PXi digital imaging system (Synoptics Group) were used to visualize blots, with exposures adjusted to be in the linear range.

Kal^Sec14 = target: T2, Kal^Sec14 (Rattus norvegicus, UniProt P97924, N62Y/T46S); test: as above; settings: Suppl. Fig. 9b,c; for Densitometry values for the Western blots, Fraction 1, Ave. / Densitometry values for the Western blots, Fraction 2, Ave. / Densitometry values for the Western blots, Fraction 3, Ave. / Densitometry values for the Western blots, Fraction 4, Ave.: average, biological replication ≥ 3; for Densitometry values for the Western blots, Fraction 1 / Densitometry values for the Western blots, Fraction 2 / Densitometry values for the Western blots, Fraction 3 / Densitometry values for the Western blots, Fraction 4: individual experiments (Exp. 1-4)
T2 construct: 19.4 kDa); His6 (TEV-cleavable) (N, cleaved yes); made in house; host or cells: E. coli BL21(DE3)
Procedure: as §1, §2
as §3, with “range. After background subtraction, bands were quantified using the GeneSys software provided with the imaging system, and data were represented as a proportion of total protein recovered. Uncropped blots, quantification of each data point and exact P-values are provided in the Source Data file. […]” for “range.”
a. Representative Western blots from flotation assays with Kal Sec14 alone (Control), and Kal Sec14 with the control lipid mix (Lipo) or with the lipid mix containing the indicated additional lipid. After binding and separation of liposome bound Kal Sec14 from unbound Kal Sec14 on Accudenz gradients, the protein content of four gradient fractions was dete rmined by immunoblot; liposomes were recovered from the top fraction (fraction 1). Source data are […]

KalbSec14 [2] = target: T1, KalbSec14; test: Isothermal titration calorimetry (preliminary); assay type: binding; settings: preliminary ITC, data not shown
[3] = normalized to total protein recovered, test lipid 8% of liposome lipid
[4] = single experiments, normalized to total protein recovered, test lipid 8% of liposome lipid
[5] = single experiments, test lipid 8% of liposome lipid

Compound | binding of Kal^bSec14 to liposomes containing the lipid (KalbSec14 [1]) | Fraction 1 protein content (top fraction, liposome-bound), densitometry, Ave. (KalbSec14 [1]; [3]) | Fraction 2 protein content, densitometry, Ave. (KalbSec14 [1]; [3]) | Fraction 3 protein content, densitometry, Ave. (KalbSec14 [1]; [3]) | Fraction 4 protein content (bottom fraction, unbound), densitometry, Ave. (KalbSec14 [1]; [3]) | Fraction 4 protein content (bottom fraction, unbound), densitometry (KalbSec14 [1]; [4]) | Densitometry values for the Western blots, Fraction 1, Ave. (Kal^Sec14) | Densitometry values for the Western blots, Fraction 2, Ave. (Kal^Sec14) | Densitometry values for the Western blots, Fraction 3, Ave. (Kal^Sec14) | Densitometry values for the Western blots, Fraction 4, Ave. (Kal^Sec14) | Densitometry values for the Western blots, Fraction 1 (Kal^Sec14) | Densitometry values for the Western blots, Fraction 2 (Kal^Sec14) | Densitometry values for the Western blots, Fraction 3 (Kal^Sec14) | Densitometry values for the Western blots, Fraction 4 (Kal^Sec14) | Fraction 1 protein content (top fraction, liposome-bound), densitometry (KalbSec14 [1]; [5]) | ITC signal (KalbSec14 [2]) | Fraction 3 protein content, densitometry (KalbSec14 [1]; [4]) | Fraction 2 protein content, densitometry (KalbSec14 [1]; [4])
CCCCCCCCCCCCC(=O)OC[C@@H](O)COP(=O)(O)OC[C@H](N)C(=O)O [LPS13:0, 1-tridecanoyl-sn-glycero-3-phospho-L-serine] | fail to interact | 0.03 | 0.0069 | 0.09 | 0.88 | 0.88 and 0.93 and 0.85 and 0.84 | 0.05 | 0.00866 | 0.09 | 0.86 | 0.07 and 0.05 and 0.025 and 0.0554 | 0.00695 and 0.01 and 0.00643 and 0.0108 | 0.07 and 0.05 and 0.16 | 0.86 and 0.89 and 0.90 and 0.78 |  |  |  | 
CCCCCCCCCCCCC(=O)OC[C@@H](O)COP(=O)(O)OC1C(O)C(O)C(O)C(O)C1O (some centres unmarked) [LPI13:0, 1-tridecanoyl-2-hydroxy-sn-glycero-3-phospho-(1'-myo-inositol)] | fail to interact | 0.028 | 0.00535 | 0.18 | 0.79 | 0.70 and 0.76 and 0.89 | 0.0225 | 0.0117 | 0.17 | 0.80 | 0.0325 and 0.0143 and 0.02 | 0.00684 and 0.00931 and 0.019 | 0.10 and 0.16 and 0.24 | 0.86 and 0.82 and 0.72 | 0.0252 and 0.03 |  |  | 
CCCCCCCCCCOP(=O)([O-])OCC[N+](C)(C)C [FC10, decylphosphocholine] |  |  |  |  |  |  |  |  |  |  |  |  |  |  |  | no ITC signal was observed |  | 
CCCCCCCCCCCCCC(=O)OC[C@H](COP(=O)([O-])OCC[N+](C)(C)C)OC(=O)CCCCCCCCCCCCC [DMPC, 1,2-dimyristoyl-sn-glycero-3-phosphocholine] | precludes binding | 0.0259 | 0.0121 | 0.11 | 0.85 | 0.86 and 0.83 and 0.87 | 0.03 | 0.01 | 0.11 | 0.85 | 0.0333 and 0.0235 and 0.03 | 0.00764 and 0.00497 and 0.0174 | 0.08 and 0.10 and 0.15 | 0.87 and 0.81 | 0.03 and 0.0163 and 0.0322 |  | 0.10 and 0.15 and 0.0759 | 
CCCCCCCCCCCCCC(=O)OC[C@@H](O)COP(=O)(O)OCC(O)CO (mixture of isomers) [LPG14:0, 1-myristoyl-2-hydroxy-sn-glycero-3-phospho-(1'-rac-glycerol)] | fail to interact | 0.05 | 0.00765 | 0.0849 | 0.86 | 0.89 and 0.86 and 0.83 | 0.05 | 0.0118 | 0.0754 | 0.86 | 0.0538 and 0.045 and 0.06 | 0.00506 and 0.000399 and 0.03 | 0.0633 and 0.055 and 0.11 | 0.88 and 0.90 and 0.80 |  |  | 0.07 and 0.09 | 0.00729 and 0.00538 and 0.01
